Converted amounts (≈) assume the structure as drawn. Counter-ions that a name gives are not always drawn.
Tests used:
[1] = tested on: Herpes simplex type 1 virus (HFEM strain); test: Plaque reduction, Herpes simplex type 1 virus (HFEM strain) in Vero cells (Method 1); assay type: cell-based; settings: 50% reduction in number of virus plaques, 4 days at 37° C.; for IC50: Human alphaherpesvirus 1, Vero, 96 h, read-out: PDD50 Herpes simplex type 1 virus HFEM strain in Vero cells
Protocol: (§1) Vero (Arican Green Monkey Kidney) cells were grown to confluence in 24 well multidishes, each well being 1.6 cm in diameter. The cells were infected with Herpes simplex type 1 virus (HFEM strain) and overlaid with 0.5 ml of 0.9% agarose (w/v) in maintenance medium. The test compound, prepared in maintenance medium in concentrations ranging from 100 to 0.3 μg/ml in half-log dilution steps, was added in 0.5 ml volume. The virus infected cultures were then incubated at 37° C. for 4 days before fixing in 4% formaldehyde solution and staining with carbol fuchsin.

[2] = tested on: Herpes simplex type 1 virus, strain SC16; test: Virus cytopathic effect (CPE) reduction, Herpes simplex type 1 virus strain SC16 in MRC-5 cells (Method 2); assay type: cell-based; settings: 50% reduction of virus CPE, 3 days at 37° C.; for IC50: Human alphaherpesvirus 1, SC16, MRC5, 72 h, read-out: PDD50 Herpes simplex type 1 virus SC16 strain in MRC-5 cells
Protocol: (§2) MRC-5 cells were infected in suspension with Herpes simplex type 1 virus, strain SC16. The infected cell suspension was dispensed (0.1 ml) in 96 well microtitre plates containing the test drugs in maintenance medium in concentrations ranging from 100 to 0.03 μg/ml in half-log dilution steps (0.1 ml per well). The plates were then icubated at 37° C. for 3 days when the virus cytopathic effect (CPE) in the control wells reached 100%. The plates were fixed in 4% formaldehyde solution and stained with carbol fuchsin. […] Plates using uninfected cells were run in parallel to determine the minimum concentration of test compound which caused cytotoxicity (MTD).

[3] = tested on: Herpes simplex type 2 virus (MS strain); test: Plaque reduction, Herpes simplex type 2 virus (MS strain) in Vero cells (Method 1); assay type: cell-based; settings: Human alphaherpesvirus 2, Method 1, plaque reduction, read-out: PDD50 Herpes simplex type 2 virus MS strain in Vero cells
Protocol: as §1
(§3) Compounds were also tested against Herpes simplex type 2 virus (MS strain) in Vero cells using Method 1 and in MRC-5 cells using Method 2. In the latter test, the incubation time was reduced to 24 hours.

[4] = tested on: Herpes simplex type 2 virus (MS strain); test: Virus CPE reduction, Herpes simplex type 2 virus (MS strain) in MRC-5 cells (Method 2, 24 hours incubation); assay type: cell-based; settings: Human alphaherpesvirus 2, MRC5, Method 2, CPE reduction, incubation 24 hours, read-out: PDD50 Herpes simplex type 2 virus MS strain in MRC-5 cells
Protocol: as §2, §3

[5] = Blood concentration of 9-(4-hydroxy-3-hydroxymethylbut-1-yl)guanine in mice after oral administration of derivatives (Method 3); assay type: in vivo; settings: female Balb/C mice, oral gavage 0.2 mmoles/kg of administered compound, blood 15 minutes later, pooled from three mice; analyte 9-(4-hydroxy-3-hydroxymethylbut-1-yl)guanine
Protocol: Compounds were administered by oral gavage (0.2 mmoles/kg in 0.1 ml of 1% carboxymethyl cellulose) to 20 g female Balb/C mice which had been starved for 18 hours. Fifteen minutes later, blood was collected from three mice by cardiac puncture using heparinised syringes. Equal aliquots were pooled and an equal volume of 16% trichloroacetic acid added. Following centrifugation (8,500 g) to remove precipitated proteins, the resulting mixture was analysed by high performance liquid chromatography using a C18 Nova-Pak cartridge eluted with Buffer A (50 mM NaH2PO4, pH4.6) and Buffer B (10% Buffer A, 10% water, 80% methanol) in a gradient from 1% to 95% Buffer B. 9-(4-Hydroxy-3-hydroxymethylbut-1-yl)guanine was assayed with a Pye-Unicam PU4021 u.v. detector set at 254 nm.

| Compound | melting point [°C] | IC50 [1] [µg/mL] | IC50 [2] [µg/mL] | IC50 [3] [µg/mL] | IC50 [4] [µg/mL] | also measured |
| --- | --- | --- | --- | --- | --- | --- |
| CC(=O)Nc1nc2c(ncn2CCC(CO)CO)c(=O)[nH]1 [Example 36, N^2-Acetyl-9-(4-hydroxy-3-hydroxymethylbut-1-yl)guanine] | 143 to 146 | – | – | – | – | – |
| CCCCCC(=O)Nc1nc2c(ncn2CCC(CO)CO)c(=O)[nH]1 [Example 37, N^2-Hexanoyl-9-(4-hydroxy-3-hydroxymethylbut-1-yl)guanine] | 86 to 88 | – | – | – | – | – |
| CC(=O)OCC(CO)CCn1cnc2c(=O)[nH]c(N)nc21 (stereo not shown) [Example 31, 9-(4-Acetoxy-3-hydroxymethylbut-1-yl)guanine] | 194 to 200 | 24 (≈ 81.3 µM) | 10 (≈ 33.9 µM) | – | – | – |
| CCOc1nc(N)nc2c1ncn2CCC(CO)CO [Example 16, 2-Amino-6-ethoxy-9-(4-hydroxy-3-hydroxymethylbut-1-yl)purine] | 150 to 152 | – | – | – | – | – |
| CC(=O)OCC(CCn1cnc2c(=O)[nH]c(N)nc21)COC(C)=O [Example 22, 9-(4-Acetoxy-3-acetoxymethylbut-1-yl)guanine] | 202 to 205 | > 100 | > 100 | > 100 | 83 (≈ 246 µM) | – |
| CCCCCC(=O)OCC(CCn1cnc2c(=O)[nH]c(N)nc21)COC(=O)CCCCC [Example 25, 9-(4-Hexanoyloxy-3-hexanoyloxymethylbut-1-yl)guanine] | 198.5 to 201 | 1.9 (≈ 4.23 µM) | 1 (≈ 2.22 µM) | 1.6 (≈ 3.56 µM) | 0.9 (≈ 2 µM) | – |
| Nc1nc(Oc2ccccc2)c2ncn(CCC(CO)CO)c2n1 [Example 39, 2-Amino-9-(4-hydroxy-3-hydroxymethylbut-1-yl)-6-phenoxypurine] | 173 to 175 | – | – | – | – | – |
| Nc1nc2c(ncn2CCC(CO)CO)c(=O)[nH]1 [Example 13, 9-(4-Hydroxy-3-hydroxymethylbut-1-yl)guanine, Potassium Salt] | – | – | – | – | – | PDD50 Herpes simplex type 1 virus HFEM strain in Vero cells ([1]; Potassium Salt): 1.7 µg/mL; PDD50 Herpes simplex type 1 virus SC16 strain in MRC-5 cells ([2]; Potassium Salt): 0.7 µg/mL |
| CCCCCCCCCCCCCCCC(=O)OCC(CO)CCn1cnc2c(=O)[nH]c(N)nc21 (stereo not shown) [Example 34, 9-(4-Hexadecanoyloxy-3-hydroxymethylbut-1-yl)guanine] | 183 to 191 | 16 (≈ 32.5 µM) | 2 (≈ 4.07 µM) | – | – | – |
| Nc1nc2c(ncn2CCC(CO)COC(=O)c2ccccc2)c(=O)[nH]1 (stereo not shown) [Example 32, 9-(4-Benzoyloxy-3-hydroxymethylbut-1-yl)guanine] | 156 to 168 | 95 (≈ 266 µM) | 3 (≈ 8.39 µM) | – | – | – |
| CC(C)Oc1nc(N)nc2c1ncn2CCC(CO)CO [Example 38, 2-Amino-9-(4-hydroxy-3-hydroxymethylbut-1-yl)-6-isopropoxypurine] | 111.5 to 113.5 | – | – | – | – | – |
| Nc1nc2c(ncn2CCC(COC(=O)n2ccnc2)COC(=O)n2ccnc2)c(=O)[nH]1 [Example 27, 9-[4-(N-Imidazolylcarbonyloxy)-3-(N-imidazolylcarbonyloxymethyl)-but-1-yl]guanine] | – | 13 (≈ 29.5 µM) | 1.5 (≈ 3.4 µM) | 2.8 (≈ 6.34 µM) | 5.7 (≈ 12.9 µM) | – |
| Nc1nc(OCc2ccccc2)c2ncn(CCC(CO)CO)c2n1 [Example 17, 2-Amino-6-benzyloxy-9-(4-hydroxy-3-hydroxymethylbut-1-yl)purine] | 146 to 147.5 | – | – | – | – | – |
| CCCCCC(=O)OCC(CO)CCn1cnc2c(=O)[nH]c(N)nc21 (stereo not shown) [Example 33, 9-(4-Hexanoyloxy-3-hydroxymethylbut-1-yl)guanine] | 179 to 181 | – | – | – | – | – |
| Nc1nc(N)c2ncn(CCC(CO)CO)c2n1 [Example 21, 2,6-Diamino-9-(4-hydroxy-3-hydroxymethylbut-1-yl)purine] | 187 to 190 | – | – | – | – | – |
| COc1nc(N)nc2c1ncn2CCC(CO)CO [Example 15, 2-Amino-9-(4-hydroxy-3-hydroxymethylbut-1-yl)-6-methoxypurine] | 117 to 119 | > 100 | > 100 | 63 (≈ 236 µM) | 49 (≈ 183 µM) | – |
| CCC(=O)OCC(CCn1cnc2c(=O)[nH]c(N)nc21)COC(=O)CC [Example 23, 9-(4-Propionyloxy-3-propionyloxymethylbut-1-yl)guanine] | – | > 100 | 25 (≈ 68.4 µM) | > 100 | 85 (≈ 233 µM) | – |
| Nc1nc2c(ncn2CCC(CO)CO)c(=O)[nH]1 [Example 4, 9-(4-Hydroxy-3-hydroxymethylbut-1-yl)guanine] | – | 1.3 (≈ 5.13 µM) | 0.9 (≈ 3.55 µM) | 2.3 (≈ 9.08 µM) | 0.6 (≈ 2.37 µM) | – |
| Nc1nc2c(ncn2CCC(CO)CO)c(=O)[nH]1.[Na] [Example 12, 9-(4-Hydroxy-3-hydroxymethylbut-1-yl)guanine, Sodium Salt] | – | 2.2 | 0.7 | – | – | – |
| N.N.Nc1nc2c(ncn2CCC(CO)COP(=O)(O)O)c(=O)[nH]1 (stereo not shown) [Example 35, 9-(4-Hydroxy-3-hydroxymethylbut-1-yl)guanine 4′-Phosphate Diammonium Salt] | – | – | – | – | – | Concentration of Example 4 in Blood [5]: 1100 ng/mL |
| CCC(=O)Nc1nc2c(ncn2CCC(COC(=O)CC)COC(=O)CC)c(=O)[nH]1 [Example 24, N^2-Propionyl-9-(4-propionyloxy-3-propionyloxymethyl-but-1-yl)guanine] | – | > 100 | > 100 | > 100 | 65 (≈ 154 µM) | – |
| Nc1nc2c(ncn2CCC(COC=O)COC=O)c(=O)[nH]1 [Example 26, 9-(4-Formyloxy-3-formyloxymethylbut-1-yl)guanine] | 195 to 198 | – | – | – | – | – |
| CC(C)(C)C(=O)OCC(CCn1cnc2c(=O)[nH]c(N)nc21)COC(=O)C(C)(C)C [Example 30, 9-(4-Pivalyloxy-3-pivalyloxymethylbut-1-yl)guanine] | 225 to 237 | – | – | – | – | – |

Reference: patent US6573378B1, “Antiviral guanine derivatives” (Novartis International Pharmaceutical Ltd., priority 1983, dated 2003)
